What all share (type): cell-based, human
Series [1] concerns HDF(neonatal) young and senescent cells. Kind of series: Selective death of senescent cells by inhibition of PINT expression (cell number after culturing). The note with it: siRNA transfection, cultured 14 days. The method, then: HDF(neonatal) young cells being passaged 9 times and having a doubling time of 1 day and HDF(neonatal) senescent cells being passaged 49 times and having a doubling time of 14 days, which were prepared in section 1, were transfected with each of siPINT-1, siPINT-2, siPINT-3, siPINT-4, and siPINT-5 in the same manner as in section 3.2, and further cultured in wells of 6-well plates for 14 days under the same conditions as in section 1. A negative control group was prepared in the same manner, except that scramble siRNA (hereinafter, also called ‘siCTR’) was added instead of the siRNAs.
In FIG. 5, siCTR represents control siRNA, and siPINT represents siPINT-3 among the five used siPINTs. […] However, there was little change in the number of young cells by inhibition of PINT lincRNA expression.

The subject of another series is PINT. Kind of series: PINT level (qPCR) after siRNA transfection. The note with it: HDF(neonatal) cells, 25 nM siRNA, 72 hours, vs scramble siRNA. The text has this:
In detail, the young cells were human dermal fibroblast (HDF) (hereinafter, referred to as ‘HDF cell’ or ‘HDF (neonatal)’) obtained from neonatal foreskin, human dermal fibroblast (HDF) M4 cell (hereinafter, referred to as ‘HDF M4 cell’ or ‘HDF (M4)’) obtained from the foreskin of a child, and human mammary epithelial cell (HMEC) (hereinafter, referred to as ‘HMEC cell’ or ‘HMEC’) obtained from ATCC® PCS-600-010™. The young cells for the purposes of the experiments were cells of the above cell lines that were passaged 10 times or less and have a doubling time of about 1 day. The senescent cells were cells of the same cell lines that were passaged 33 to 50 times and have a doubling time of about 14 days or longer. The young cells and senescent cells were inoculated in 6-well plates at a density of 50,000 cells/well and 20,000 cells/well, respectively. The inoculated cells were cultured in 2 ml of a DMEM medium containing 10% (v/v) FBS, and 1× penicillin/streptomycin and high concentrations of glucose, glutamine, and pyruvate under conditions of 37° C. and 5% CO2 for 3 days.
mRNAs were isolated from all the cells thus prepared, and then quantitative polymerase chain reaction (qPCR) was performed using nucleotide sequences of SEQ ID NOS: 22 and 23 as PINT primers to measure PINT levels.
To inhibit PINT gene expression and/or PINT activity, the following 5 siRNAs including sequences complementary to PINT gene of SEQ ID NO: 1 were designed and synthesized (Cosmogenetech, Korea).
The siRNAs includes nucleotide sequences of SEQ ID NO: 12 and SEQ ID NO: 13; SEQ ID NO: 14 and SEQ ID NO: 15; SEQ ID NO: 16 and SEQ ID NO: 17; SEQ ID NO: 18 and SEQ ID NO: 19; and SEQ ID NO: 20 and SEQ ID NO: 21, respectively and hereinbelow, these siRNAs are called siPINT-1, siPINT-2, siPINT-3, siPINT-4, and siPINT-5, respectively.
It was examined whether the siRNAs decrease PINT levels in senescent cells. First, HDF(neonatal) young cells being passaged 9 times and having a doubling time of 1 day and HDF(neonatal) senescent cells being passaged 49 times and having a doubling time of 14 days, which were prepared in section 1, were transfected with 25 nM siRNA. The cells were cultured for 72 hours under the same conditions as in section 1, except that each siRNA was mixed with 1 μL of a Dharmacon transfection reagent (Dharmacon), and added to media. A negative control group was prepared in the same manner, except that scramble siRNA was added instead of the siRNAs. After culturing, PINT levels in the cells were measured in the same manner as in section 1. As a result, when siPINT-1, siPINT-2, siPINT-3, siPINT-4, and siPINT-5 were used, the PINT levels were decreased by 36, 0, 67, 50, and 0%, respectively, as compared to the control group.
(Real-time PCR tracks product formation cycle by cycle.)

In series [2] the test system is HDF(neonatal) senescent cells. In words: DNA comet assay in siRNA-introduced cells. The note with it: 25 nM siRNA, 72 hours; for tail moment: control senescent cells 2.86, young cells 0.52. The method, then: (§1) HDF(neonatal) young cells being passaged 9 times and having a doubling time of 1 day and HDF(neonatal) senescent cells being passaged 49 times and having a doubling time of 14 days, which were prepared in section 1, were cultured for 72 hours under the same conditions as in section 1, except that each 25 nM of siPINT-3 and siPINT-4 was mixed with 1 μL of a Dharmacon transfection reagent (Dharmacon) and added to media. A negative control group was prepared in the same manner, except that scramble siRNA (hereinafter, also called ‘siCTRL’) was added instead of the siRNAs.
Further, DNAs were isolated from the same cells, followed by DNA comet assay. This method is performed by detecting DNA strand break in cells, based on gel electrophoresis. […] After staining a slide with SYBR Green, a length of a tail of DNA fragment was measured under a fluorescence microscope to examine DNA damage.

The test system of series [3] is HDF(neonatal) senescent cells. Kind of series: Immunoblotting of phosphorylated H2AX (gamma-H2AX) in siRNA-introduced cells. The note with it: HDF(neonatal) senescent cells vs young cells, 25 nM siRNA, 72 hours. The method, then: as §1
After culturing, proteins were isolated from siRNA-introduced cells, and then the isolated proteins were subjected to immunoblotting using anti-GAPDH and anti-phosphorylated-H2AX. H2AX becomes phosphorylated on serine 139 as a reaction on DNA Double-strand breaks (DSB), and is also called gamma-H2AX. Gamma-H2AX is an indicator of DNA damage.

A further series concerns PINT lincRNA. In words: PINT lincRNA levels (qPCR) in young cells in the presence of DNA damage inducers. The note with it: 10 μM, 24 hours, level in absence of DNA damage inducers taken as 1.

The results in this text go back to US9988632B2, “Composition including pint gene expression inhibitor or pint activity inhibitor and use thereof” (Samsung Electronics Co., Ltd., priority 2015, dated 2018).

Procedure for PINT lincRNA: PINT lincRNA levels were measured according to DNA damage in cells. The cells were young cells HDF(M4) and HDF(neonatal) derived from humans, explained in section 1.
As a negative control, the cells were treated with dimethyl sulfoxide (DMSO) (Sigma-Aldrich). Thereafter, mRNAs were isolated from all the cells, and then quantitative polymerase chain reaction (qPCR) was performed using nucleotide sequences of SEQ ID NOS: 22 and 24 as PINT primers to measure PINT levels.

As for “siPINT-3: siRNA complementary to PINT gene, nucleotide sequences of SEQ ID NO: 16 and SEQ ID NO: 17 (chain 1 AUGUAUCAAAUGCCUGGUUCUAUUU; chain 2 AAAUAGAACCAGGCAUUUGAUACAU; listed as RNA, chemistry not given here)”, the “number of senescent cells compared to the negative control group” value in series [1] (HDF(neonatal) senescent cells) is recorded as “remarkably decreased”. Further, the “change in the number of young cells” value in series [1] (HDF(neonatal) young cells) is given as “little change”. For the same compound, the “PINT levels decreased as compared to the control group” value (“PINT levels decreased” below) in the series on PINT was determined as 67%. In series [2], the “DNA damage (comet tails, photograph) compared to senescent cells without siPINT introduction” value was “remarkably increased DNA damage” and the tail moment turned out to be 3.68. In series [3], the “gamma-H2AX levels (indicator of DNA damage)” value was “specifically increased”.

As to “siPINT-1: siRNA complementary to PINT gene, nucleotide sequences of SEQ ID NO: 12 and SEQ ID NO: 13 (chain 1 AAGAAAUACGCAGAACUGAUUCCUG; chain 2 CAGGAAUCAGUUCUGCGUAUUUCUU; listed as RNA, chemistry not given here)”, the “PINT levels decreased” value in the series on PINT is on record as 36%.

In the case of `C[C@@]1(CO)[C@H](O)CC[C@@]2(C)[C@H]1CC[C@H]1C[C@@H]3C[C@@]12CC[C@]3(O)CO` [aphidicolin], the figures for the “relative PINT level” value in the series on PINT lincRNA (HDF(M4) young cells) and in the series on PINT lincRNA (HDF(neonatal) young cells) were 1.95 and 2.72, respectively.

As for “siPINT-4: siRNA complementary to PINT gene, nucleotide sequences of SEQ ID NO: 18 and SEQ ID NO: 19 (chain 1 AAGUAGGAGCCACGAAAUGUCAUUU; chain 2 AAAUGACAUUUCGUGGCUCCUACUU; listed as RNA, chemistry not given here)”, the “PINT levels decreased” value with PINT is recorded as 50%. In series [2], this compound registered a tail moment of 5.58. Further, the “gamma-H2AX levels (indicator of DNA damage)” value in series [3] was “specifically increased”.

For “siPINT-2: siRNA complementary to PINT gene, nucleotide sequences of SEQ ID NO: 14 and SEQ ID NO: 15 (chain 1 UGGGAUAAUUUGCCAUCUGGAGUUU; chain 2 AAACUCCAGAUGGCAAAUUAUCCCA; listed as RNA, chemistry not given here)”, the “PINT levels decreased” value in the series on PINT is reported as 0%.

Regarding “siPINT-5: siRNA complementary to PINT gene, nucleotide sequences of SEQ ID NO: 20 and SEQ ID NO: 21 (chain 1 AGCCAGGAAGAGGGACUGGAACCAU; chain 2 AUGGUUCCAGUCCCUCUUCCUGGCU; listed as RNA, chemistry not given here)”, in the series on PINT, the “PINT levels decreased” value was 0%.
